# Bridge positions count the residues as written; N and C are the ends. Square brackets hold non-standard residues; d marks the D form. Peptide text beside a SMILES is read from it. Hyp = O=C(O)[C@@H]1C[C@@H](O)CN1; Cit = NC(=O)NCCC[C@H](N)C(=O)O
# Tests used:
# hAMY3 receptor = molecular target: T1, hAMY3 receptor (Homo sapiens, UniProt O60896+P30988); assay: cAMP assay for in vitro receptor activation, hAMY3-R; type: cell-based; settings: cAMP assay, hAMY3 receptor; read-out: hAMY3R EC50
# T1 sequence (P30988 25-474): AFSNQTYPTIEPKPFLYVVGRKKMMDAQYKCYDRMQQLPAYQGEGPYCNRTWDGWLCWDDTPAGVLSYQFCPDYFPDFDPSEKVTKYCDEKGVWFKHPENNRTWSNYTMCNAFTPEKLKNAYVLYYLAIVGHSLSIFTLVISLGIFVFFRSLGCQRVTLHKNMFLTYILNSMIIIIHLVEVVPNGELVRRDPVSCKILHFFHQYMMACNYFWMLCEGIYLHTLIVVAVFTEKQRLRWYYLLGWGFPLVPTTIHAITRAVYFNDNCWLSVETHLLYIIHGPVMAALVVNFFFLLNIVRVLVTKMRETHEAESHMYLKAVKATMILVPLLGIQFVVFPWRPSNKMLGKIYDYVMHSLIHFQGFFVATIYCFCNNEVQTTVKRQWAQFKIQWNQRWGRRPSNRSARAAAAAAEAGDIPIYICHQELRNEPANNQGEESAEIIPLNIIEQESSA
# T1 sequence (O60896 24-148 partner): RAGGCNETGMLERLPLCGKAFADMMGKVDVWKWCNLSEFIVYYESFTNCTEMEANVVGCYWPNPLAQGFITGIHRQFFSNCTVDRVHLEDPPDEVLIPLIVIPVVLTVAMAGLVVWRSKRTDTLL
# In short: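 Graded compound concentrations were applied for 30 min at room temperature to stably hAMY3-expressing cells in DPBS, 0.05% casein, 0.5 mM IBMX; cAMP detected by TR-FRET.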
# hAM1 receptor = hAM1 receptor (Homo sapiens, UniProt O60895+Q16602); assay: cAMP assay for in vitro receptor activation, hAM1-R; type: cell-based; settings: cAMP assay, hAM1 receptor; read-out: hAM1R EC50
# In short: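 Monoclonal stable hAM1-overexpressing cells, thawed from frozen stock; 8000 cells/well in DPBS + 0.05% casein + 0.5 mM IBMX; read-out cAMP.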
# [1] = Physical stability of peptide analogues (Thioflavin T fibrillation); type: physicochemical; settings: maximum ThT signal normalized between hAMY maximum and buffer background; 40° C., shaking, four days; pH 7 per table title
# In short: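 Maximum ThT emission at 480 nm, after LOESS smoothing, is given as percent of the span from buffer background to hAMY. Conditions: 50 mM buffer at pH 4 or 7, 4 μM dye, 40 °C, repeated shaking, readings every 10 min for four days.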
# hAM1 receptor, sequence (Q16602 23-461): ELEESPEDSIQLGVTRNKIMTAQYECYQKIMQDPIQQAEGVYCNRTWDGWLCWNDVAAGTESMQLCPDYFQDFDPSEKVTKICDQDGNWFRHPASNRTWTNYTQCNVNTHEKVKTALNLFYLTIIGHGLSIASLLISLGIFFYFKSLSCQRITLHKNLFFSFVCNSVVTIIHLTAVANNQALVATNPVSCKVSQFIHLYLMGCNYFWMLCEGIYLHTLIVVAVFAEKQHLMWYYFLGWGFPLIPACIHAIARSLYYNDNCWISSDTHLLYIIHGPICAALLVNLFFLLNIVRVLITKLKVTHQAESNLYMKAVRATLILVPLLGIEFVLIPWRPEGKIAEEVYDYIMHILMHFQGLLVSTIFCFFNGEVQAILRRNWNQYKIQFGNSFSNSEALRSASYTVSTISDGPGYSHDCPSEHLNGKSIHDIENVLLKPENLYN
# hAM1 receptor, sequence (O60895 43-175 partner): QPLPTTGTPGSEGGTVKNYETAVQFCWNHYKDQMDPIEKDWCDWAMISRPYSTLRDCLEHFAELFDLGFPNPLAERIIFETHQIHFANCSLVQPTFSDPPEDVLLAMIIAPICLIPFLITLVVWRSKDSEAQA
EC50 (hAMY3 receptor) [nM],EC50 (hAM1 receptor) [nM],Max ThT signal (%) [1] [%],Compound
0.006,> 5000,10.600,CC[C@H](C)[C@H](NC(=O)[C@H](CCC(N)=O)NC(=O)[C@H](Cc1c[nH]cn1)NC(=O)[C@H](C)NC(=O)[C@H](CC(C)C)NC(=O)[C@H](CCCNC(N)=O)NC(=O)[C@H](CCC(N)=O)NC(=O)[C@@H](NC(=O)[C@@H](NC(=O)[C@@H]1CSSC[C@H](NC(=O)[C@@H](N)CCCCN)C(=O)N[C@@H](CC(N)=O)C(=O)N[C@@H]([C@@H](C)O)C(=O)N[C@@H](C)C(=O)N[C@@H]([C@@H](C)O)C(=O)N1)[C@@H](C)O)C(C)C)C(=O)N[C@@H](Cc1ccc(O)cc1)C(=O)N[C@@H](CCC(N)=O)C(=O)N[C@@H](Cc1ccccc1)C(=O)N[C@H](C(=O)N[C@@H](CC(=O)O)C(=O)N[C@@H](CCCCN)C(=O)N[C@@H](CC(=O)O)C(=O)N[C@@H](CCCCN)C(=O)N[C@@H](CC(=O)O)C(=O)N[C@@H](CC(N)=O)C(=O)N[C@@H](C)C(=O)N[C@@H](C)C(=O)N1CCC[C@H]1C(=O)N1CCC[C@H]1C(=O)N[C@H](C(=O)N[C@@H](CC(N)=O)C(=O)N[C@H](C(=O)NCC(=O)N[C@@H](CO)C(=O)N[C@@H](CC(N)=O)C(=O)NCC(=O)N1C[C@H](O)C[C@H]1C(N)=O)C(C)C)[C@@H](C)O)[C@@H](C)O [compound 251] (H-KCNTATCTVQ[Cit]LAHQIYQFTDKDKDNAAPPTNVGSNG[Hyp]-NH2; disulfide 2-7; N-terminus assumed)
0.071,> 5000,24.350,CC[C@H](C)[C@H](NC(=O)[C@H](CCC(N)=O)NC(=O)[C@H](Cc1c[nH]cn1)NC(=O)[C@H](C)NC(=O)[C@H](CC(C)C)NC(=O)[C@H](Cc1c[nH]c2ccccc12)NC(=O)[C@H](CCC(N)=O)NC(=O)[C@@H](NC(=O)[C@@H](NC(=O)[C@@H]1CSSC[C@H](NC(=O)CN)C(=O)N[C@@H](CCCNC(=N)N)C(=O)N[C@@H]([C@@H](C)O)C(=O)NCC(=O)N[C@@H]([C@@H](C)O)C(=O)N1)[C@@H](C)O)C(C)C)C(=O)N[C@@H](Cc1ccc(O)cc1)C(=O)N[C@@H](CCC(N)=O)C(=O)N[C@@H](Cc1ccccc1)C(=O)N[C@H](C(=O)N[C@@H](CC(=O)O)C(=O)N[C@@H](CCCCN)C(=O)N[C@@H](CC(=O)O)C(=O)N[C@@H](CCCCN)C(=O)N[C@@H](CC(=O)O)C(=O)N[C@@H](CC(N)=O)C(=O)N[C@H](C(=O)N[C@@H](C)C(=O)N1CCC[C@H]1C(=O)N[C@@H](CCCNC(=N)N)C(=O)N[C@H](C(=O)N[C@@H](CC(N)=O)C(=O)N[C@H](C(=O)N[C@@H](CO)C(=O)N1CCC[C@H]1C(=O)N[C@@H](CC(N)=O)C(=O)NCC(=O)N1C[C@H](O)C[C@H]1C(N)=O)C(C)C)[C@@H](C)O)C(C)C)[C@@H](C)O [compound 358] (H-GCRTGTCTVQWLAHQIYQFTDKDKDNVAPRTNVSPNG[Hyp]-NH2; disulfide 2-7; N-terminus assumed)
0.008,> 5000,33.400,CC[C@H](C)[C@H](NC(=O)[C@H](CCC(N)=O)NC(=O)[C@H](Cc1c[nH]cn1)NC(=O)[C@H](C)NC(=O)[C@H](CC(C)C)NC(=O)[C@H](CCCNC(=N)N)NC(=O)[C@H](CCC(N)=O)NC(=O)[C@@H](NC(=O)[C@@H](NC(=O)[C@@H]1CSSC[C@H](NC(=O)[C@@H](N)CCCCN)C(=O)N[C@@H](CC(N)=O)C(=O)N[C@@H]([C@@H](C)O)C(=O)N[C@@H](C)C(=O)N[C@@H]([C@@H](C)O)C(=O)N1)[C@@H](C)O)C(C)C)C(=O)N[C@@H](Cc1ccc(O)cc1)C(=O)N[C@@H](CCC(N)=O)C(=O)N[C@@H](Cc1ccccc1)C(=O)N[C@H](C(=O)N[C@@H](CC(=O)O)C(=O)N[C@@H](CCCCN)C(=O)N[C@@H](CC(=O)O)C(=O)N[C@@H](C)C(=O)N[C@@H](CC(=O)O)C(=O)N[C@@H](CC(N)=O)C(=O)N[C@H](C(=O)N[C@@H](C)C(=O)N1CCC[C@H]1C(=O)N1CCC[C@H]1C(=O)N[C@H](C(=O)N[C@@H](CC(N)=O)C(=O)N[C@H](C(=O)NCC(=O)N[C@@H](CO)C(=O)N[C@@H](CC(N)=O)C(=O)NCC(=O)N1C[C@H](O)C[C@H]1C(N)=O)C(C)C)[C@@H](C)O)C(C)C)[C@@H](C)O [compound 25] (H-KCNTATCTVQRLAHQIYQFTDKDADNVAPPTNVGSNG[Hyp]-NH2; disulfide 2-7; N-terminus assumed)
0.005,> 5000,34.500,CC[C@H](C)[C@H](NC(=O)[C@H](CCC(N)=O)NC(=O)[C@H](Cc1c[nH]cn1)NC(=O)[C@H](C)NC(=O)[C@H](CC(C)C)NC(=O)[C@H](CCCNC(N)=O)NC(=O)[C@H](CCC(N)=O)NC(=O)[C@@H](NC(=O)[C@@H](NC(=O)[C@@H]1CSSC[C@H](NC(=O)CN)C(=O)N[C@@H](CCCNC(=N)N)C(=O)N[C@@H]([C@@H](C)O)C(=O)NCC(=O)N[C@@H]([C@@H](C)O)C(=O)N1)[C@@H](C)O)C(C)C)C(=O)N[C@@H](Cc1ccc(O)cc1)C(=O)N[C@@H](CCC(N)=O)C(=O)N[C@@H](Cc1ccccc1)C(=O)N[C@H](C(=O)N[C@@H](CC(=O)O)C(=O)N[C@@H](CCCCN)C(=O)N[C@@H](CC(=O)O)C(=O)N[C@@H](CCCCN)C(=O)N[C@@H](CC(=O)O)C(=O)N[C@@H](CC(N)=O)C(=O)N[C@H](C(=O)N[C@@H](C)C(=O)N1CCC[C@H]1C(=O)N[C@@H](CCCNC(=N)N)C(=O)N[C@H](C(=O)N[C@@H](CC(N)=O)C(=O)N[C@H](C(=O)NCC(=O)N1CCC[C@H]1C(=O)N[C@@H](CC(N)=O)C(=O)NCC(=O)N[C@@H](Cc1ccc(O)cc1)C(N)=O)C(C)C)[C@@H](C)O)C(C)C)[C@@H](C)O [compound 269] (H-GCRTGTCTVQ[Cit]LAHQIYQFTDKDKDNVAPRTNVGPNGY-NH2; disulfide 2-7; N-terminus assumed)
0.012,> 5000,17.000,CC[C@H](C)[C@H](NC(=O)[C@H](CCC(N)=O)NC(=O)[C@H](Cc1c[nH]cn1)NC(=O)[C@H](C)NC(=O)[C@H](CC(C)C)NC(=O)[C@H](Cc1c[nH]c2ccccc12)NC(=O)[C@H](CCC(N)=O)NC(=O)[C@@H](NC(=O)[C@@H](NC(=O)[C@@H]1CSSC[C@H](NC(=O)[C@@H](N)CCCCN)C(=O)N[C@@H](CC(N)=O)C(=O)N[C@@H]([C@@H](C)O)C(=O)N[C@@H](C)C(=O)N[C@@H]([C@@H](C)O)C(=O)N1)[C@@H](C)O)C(C)C)C(=O)N[C@@H](Cc1ccc(O)cc1)C(=O)N[C@@H](CCC(N)=O)C(=O)N[C@@H](Cc1ccccc1)C(=O)N[C@H](C(=O)N[C@@H](CC(=O)O)C(=O)N[C@@H](CCCCN)C(=O)N[C@@H](CC(=O)O)C(=O)N[C@@H](CCCCN)C(=O)N[C@@H](CC(=O)O)C(=O)N[C@@H](CC(N)=O)C(=O)N[C@H](C(=O)N[C@@H](C)C(=O)N1CCC[C@H]1C(=O)N[C@@H](CCCNC(=N)N)C(=O)N[C@H](C(=O)N[C@@H](CCCCN)C(=O)N[C@H](C(=O)NCC(=O)N[C@@H](CO)C(=O)N[C@@H](CC(N)=O)C(=O)NCC(=O)N1C[C@H](O)C[C@H]1C(N)=O)C(C)C)[C@@H](C)O)C(C)C)[C@@H](C)O [compound 312] (H-KCNTATCTVQWLAHQIYQFTDKDKDNVAPRTKVGSNG[Hyp]-NH2; disulfide 2-7; N-terminus assumed)
0.009,> 5000,16.750,CC[C@H](C)[C@H](NC(=O)[C@H](CCC(N)=O)NC(=O)[C@H](Cc1c[nH]cn1)NC(=O)[C@H](C)NC(=O)[C@H](CC(C)C)NC(=O)[C@H](CCCNC(N)=O)NC(=O)[C@H](CCC(N)=O)NC(=O)[C@@H](NC(=O)[C@@H](NC(=O)[C@@H]1CSSC[C@H](NC(=O)[C@@H](N)CCCCN)C(=O)N[C@@H](CC(N)=O)C(=O)N[C@@H]([C@@H](C)O)C(=O)N[C@@H](C)C(=O)N[C@@H]([C@@H](C)O)C(=O)N1)[C@@H](C)O)C(C)C)C(=O)N[C@@H](Cc1ccc(O)cc1)C(=O)N[C@@H](CCC(N)=O)C(=O)N[C@@H](Cc1ccccc1)C(=O)N[C@H](C(=O)N[C@@H](CC(=O)O)C(=O)N[C@@H](CCCCN)C(=O)N[C@@H](CC(=O)O)C(=O)N[C@@H](CCCCN)C(=O)N[C@@H](CC(=O)O)C(=O)N[C@@H](CC(N)=O)C(=O)N[C@H](C(=O)N[C@@H](C)C(=O)N1CCC[C@H]1C(=O)N[C@@H](CCCNC(=N)N)C(=O)N[C@H](C(=O)N[C@@H](CCC(=O)O)C(=O)N[C@H](C(=O)NCC(=O)N[C@@H](CO)C(=O)N[C@@H](CC(N)=O)C(=O)NCC(=O)N[C@@H](Cc1ccc(O)cc1)C(N)=O)C(C)C)[C@@H](C)O)C(C)C)[C@@H](C)O [compound 272] (H-KCNTATCTVQ[Cit]LAHQIYQFTDKDKDNVAPRTEVGSNGY-NH2; disulfide 2-7; N-terminus assumed)
